Results taken from patent US11952364B2, “TRK inhibitors useful as anticancer drugs” (TYLIGAND BIOSCIENCE (SHANGHAI) LIMITED, priority 2018, dated 2024).

What was measured:
Experiment in all cases: KINOMEscan competition binding assay
AXL = AXL (Homo sapiens (Human), UniProt P30530)
Experimental: (§1) The experiment was performed according to the standard kinase activity determination protocol by Eurofins DiscoverX Corporation (11180 Roselle St. Suite D, San Diego, CA, USA, www.discoverX.com). Specifically, the experiment was conducted using the KINOMEscan™ screening platform, which adopts an active site-directed competition binding assay to quantitatively measure the interaction between test compounds and more than hundreds of human kinases and disease-related mutants. The working principle of the screening platform and kinase assay methods are well known in the art, for example, see www.discoverX.com.

BLK = BLK (Homo sapiens (Human), UniProt P51451)
Experimental: as §1

CDK11 = CDK11 (Homo sapiens (Human), UniProt Q9BWU1)
Experimental: as §1

CDK7 = CDK7 (Homo sapiens (Human), UniProt P50613)
Experimental: as §1

DDR1 = DDR1 (Homo sapiens (Human), UniProt Q08345)
Experimental: as §1

EPHB6 = EPHB6 (Homo sapiens (Human), UniProt O15197)
Experimental: as §1

FLT3 = FLT3 (Homo sapiens (Human), UniProt P36888)
Experimental: as §1

FLT3(D835V) = FLT3(D835V) (Homo sapiens (Human), UniProt P36888, D835V)
Experimental: as §1

FLT3(N841I) = FLT3(N841I) (Homo sapiens (Human), UniProt P36888, N841I)
Experimental: as §1

FLT4 = FLT4 (Homo sapiens (Human), UniProt P35916)
Experimental: as §1

HIPK4 = HIPK4 (Homo sapiens (Human), UniProt Q8NE63)
Experimental: as §1

IKK-alpha = IKK-alpha (Homo sapiens (Human), UniProt O15111)
Experimental: as §1

IKK-beta = IKK-beta (Homo sapiens (Human), UniProt O14920)
Experimental: as §1

KIT = KIT (Homo sapiens (Human), UniProt P10721)
Experimental: as §1

KIT(L576P) = KIT(L576P) (Homo sapiens (Human), UniProt P10721, L576P)
Experimental: as §1

KIT(V559D) = KIT(V559D) (Homo sapiens (Human), UniProt P10721, V559D)
Experimental: as §1

KIT(V559D, T670I) = KIT(V559D, T670I) (Homo sapiens (Human), UniProt P10721, T670I/V559D)
Experimental: as §1

MET(M1250T) = MET(M1250T) (Homo sapiens (Human), UniProt P08581, M1250T)
Experimental: as §1

MET(Y1235D) = MET(Y1235D) (Homo sapiens (Human), UniProt P08581, Y1235D)
Experimental: as §1

MKNK2 = MKNK2 (Homo sapiens (Human), UniProt Q9HBH9)
Experimental: as §1

MST1R = MST1R (Homo sapiens (Human), UniProt Q04912)
Experimental: as §1

MUSK = MUSK (Homo sapiens (Human), UniProt O15146)
Experimental: as §1

MYO3B = MYO3B (Homo sapiens (Human), UniProt Q8WXR4)
Experimental: as §1

NEK9 = NEK9 (Homo sapiens (Human), UniProt Q8TD19)
Experimental: as §1

PDGFRB = PDGFRB (Homo sapiens (Human), UniProt P09619)
Experimental: as §1

RAF1 = RAF1 (Homo sapiens (Human), UniProt P04049)
Experimental: as §1

RET(M918T) = RET(M918T) (Homo sapiens (Human), UniProt P07949, M918T)
Experimental: as §1

ROS1 = ROS1 (Homo sapiens (Human), UniProt P08922)
Experimental: as §1

TIE1 = TIE1 (Homo sapiens (Human), UniProt P35590)
Experimental: as §1

TIE2 = TIE2 (Homo sapiens (Human), UniProt Q02763)
Experimental: as §1

TRKA = TRKA (Homo sapiens (Human), UniProt P04629)
Experimental: as §1

TRKB = TRKB (Homo sapiens (Human), UniProt Q16620)
Experimental: as §1

Chain of RAF1 (P04049 whole entry): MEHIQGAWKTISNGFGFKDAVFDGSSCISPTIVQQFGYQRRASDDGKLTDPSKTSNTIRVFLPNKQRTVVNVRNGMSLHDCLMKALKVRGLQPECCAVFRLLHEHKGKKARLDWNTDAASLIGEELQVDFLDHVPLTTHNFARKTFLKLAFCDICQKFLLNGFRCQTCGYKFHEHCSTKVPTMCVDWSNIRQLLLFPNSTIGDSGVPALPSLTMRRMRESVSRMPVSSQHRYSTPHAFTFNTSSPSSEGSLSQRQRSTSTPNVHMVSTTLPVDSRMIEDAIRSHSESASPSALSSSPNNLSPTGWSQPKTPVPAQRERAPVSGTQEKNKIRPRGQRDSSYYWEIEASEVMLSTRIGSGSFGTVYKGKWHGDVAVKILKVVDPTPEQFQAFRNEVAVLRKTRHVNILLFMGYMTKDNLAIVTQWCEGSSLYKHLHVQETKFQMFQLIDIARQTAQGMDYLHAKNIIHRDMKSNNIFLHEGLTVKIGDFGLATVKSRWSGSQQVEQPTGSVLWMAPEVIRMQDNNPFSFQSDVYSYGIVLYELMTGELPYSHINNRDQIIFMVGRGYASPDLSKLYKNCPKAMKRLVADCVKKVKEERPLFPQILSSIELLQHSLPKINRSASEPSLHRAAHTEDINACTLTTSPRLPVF
Chain of EPHB6 (O15197 32-1021): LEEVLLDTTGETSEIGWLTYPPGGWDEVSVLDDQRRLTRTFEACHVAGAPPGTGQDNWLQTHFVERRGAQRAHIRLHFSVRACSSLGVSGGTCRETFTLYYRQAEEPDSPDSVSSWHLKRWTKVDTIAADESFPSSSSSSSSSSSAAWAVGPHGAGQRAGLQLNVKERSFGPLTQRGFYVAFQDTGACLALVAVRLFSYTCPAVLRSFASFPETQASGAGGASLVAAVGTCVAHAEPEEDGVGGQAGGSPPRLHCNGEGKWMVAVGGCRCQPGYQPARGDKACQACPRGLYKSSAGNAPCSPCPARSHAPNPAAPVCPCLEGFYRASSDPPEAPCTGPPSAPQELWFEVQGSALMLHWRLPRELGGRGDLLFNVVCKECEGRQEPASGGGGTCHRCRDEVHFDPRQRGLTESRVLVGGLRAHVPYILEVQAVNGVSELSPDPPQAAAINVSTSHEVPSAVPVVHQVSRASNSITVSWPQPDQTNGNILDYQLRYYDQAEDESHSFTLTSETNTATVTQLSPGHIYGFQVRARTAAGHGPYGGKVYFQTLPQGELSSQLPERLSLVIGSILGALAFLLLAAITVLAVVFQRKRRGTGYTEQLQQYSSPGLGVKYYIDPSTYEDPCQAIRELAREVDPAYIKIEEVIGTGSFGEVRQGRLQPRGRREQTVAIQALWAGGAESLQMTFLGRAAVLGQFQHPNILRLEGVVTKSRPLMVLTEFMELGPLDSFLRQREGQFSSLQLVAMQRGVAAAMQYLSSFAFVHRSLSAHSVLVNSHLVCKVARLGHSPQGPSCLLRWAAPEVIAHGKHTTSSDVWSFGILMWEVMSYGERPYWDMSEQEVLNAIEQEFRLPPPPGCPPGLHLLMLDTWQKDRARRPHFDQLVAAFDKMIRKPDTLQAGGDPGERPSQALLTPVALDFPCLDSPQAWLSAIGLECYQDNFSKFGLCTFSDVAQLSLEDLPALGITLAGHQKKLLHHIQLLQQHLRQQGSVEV
Chain of IKK-beta (O14920 whole entry): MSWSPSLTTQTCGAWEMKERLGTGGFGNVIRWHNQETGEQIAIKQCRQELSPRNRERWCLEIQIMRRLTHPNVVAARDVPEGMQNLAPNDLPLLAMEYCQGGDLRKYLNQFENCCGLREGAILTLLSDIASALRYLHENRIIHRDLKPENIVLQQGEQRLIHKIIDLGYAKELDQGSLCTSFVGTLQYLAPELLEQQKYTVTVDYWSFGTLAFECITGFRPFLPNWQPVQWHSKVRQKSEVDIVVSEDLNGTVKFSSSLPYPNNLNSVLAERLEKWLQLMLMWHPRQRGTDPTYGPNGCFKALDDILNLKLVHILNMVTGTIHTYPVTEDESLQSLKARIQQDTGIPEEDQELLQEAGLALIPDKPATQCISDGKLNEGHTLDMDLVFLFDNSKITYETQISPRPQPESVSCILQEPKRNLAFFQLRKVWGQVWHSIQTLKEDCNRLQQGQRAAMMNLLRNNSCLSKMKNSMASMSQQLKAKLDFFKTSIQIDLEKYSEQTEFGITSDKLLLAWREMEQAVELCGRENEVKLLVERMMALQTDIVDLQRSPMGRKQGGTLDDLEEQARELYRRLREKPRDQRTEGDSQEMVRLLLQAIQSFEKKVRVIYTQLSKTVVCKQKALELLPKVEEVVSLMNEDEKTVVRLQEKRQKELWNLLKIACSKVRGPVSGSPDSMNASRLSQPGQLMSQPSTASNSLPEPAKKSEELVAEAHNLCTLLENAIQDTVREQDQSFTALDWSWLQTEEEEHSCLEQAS
Chain of MST1R (Q04912 25-1400): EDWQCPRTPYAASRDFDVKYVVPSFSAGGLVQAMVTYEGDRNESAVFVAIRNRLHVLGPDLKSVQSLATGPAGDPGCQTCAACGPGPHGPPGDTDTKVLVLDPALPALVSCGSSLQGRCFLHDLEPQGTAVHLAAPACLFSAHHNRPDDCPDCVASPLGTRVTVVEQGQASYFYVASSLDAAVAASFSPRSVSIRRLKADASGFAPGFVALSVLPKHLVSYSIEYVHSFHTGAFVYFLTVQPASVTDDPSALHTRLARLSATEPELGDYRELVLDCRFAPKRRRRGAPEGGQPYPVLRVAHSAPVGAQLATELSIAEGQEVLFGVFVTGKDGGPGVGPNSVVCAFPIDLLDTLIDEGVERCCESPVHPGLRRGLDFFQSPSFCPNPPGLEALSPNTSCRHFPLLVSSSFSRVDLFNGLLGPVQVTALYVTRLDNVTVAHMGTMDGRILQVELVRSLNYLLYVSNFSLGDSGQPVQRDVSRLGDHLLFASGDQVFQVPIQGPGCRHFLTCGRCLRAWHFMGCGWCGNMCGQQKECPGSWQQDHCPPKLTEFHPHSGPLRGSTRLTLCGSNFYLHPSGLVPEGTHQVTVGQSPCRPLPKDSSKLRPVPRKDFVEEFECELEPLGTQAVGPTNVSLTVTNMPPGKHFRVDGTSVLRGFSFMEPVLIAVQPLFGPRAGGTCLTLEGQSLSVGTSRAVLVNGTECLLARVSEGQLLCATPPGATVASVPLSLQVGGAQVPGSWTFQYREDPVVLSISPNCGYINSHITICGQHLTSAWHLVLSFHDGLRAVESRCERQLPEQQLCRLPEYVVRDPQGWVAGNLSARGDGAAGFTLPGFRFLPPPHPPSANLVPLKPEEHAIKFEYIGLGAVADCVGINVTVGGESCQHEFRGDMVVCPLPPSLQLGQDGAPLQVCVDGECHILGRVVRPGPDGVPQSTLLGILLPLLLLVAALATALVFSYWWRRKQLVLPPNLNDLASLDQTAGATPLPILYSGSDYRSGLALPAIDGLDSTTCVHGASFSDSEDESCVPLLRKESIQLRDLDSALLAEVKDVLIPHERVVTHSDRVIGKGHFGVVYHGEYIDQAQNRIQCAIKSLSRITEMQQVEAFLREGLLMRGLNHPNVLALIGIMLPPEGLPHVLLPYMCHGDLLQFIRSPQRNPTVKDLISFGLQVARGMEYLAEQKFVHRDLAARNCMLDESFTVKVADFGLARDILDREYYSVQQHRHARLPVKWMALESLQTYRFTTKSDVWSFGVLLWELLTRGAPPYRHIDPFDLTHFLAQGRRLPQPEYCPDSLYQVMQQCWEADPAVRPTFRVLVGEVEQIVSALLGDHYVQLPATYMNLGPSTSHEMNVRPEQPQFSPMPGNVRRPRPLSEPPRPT
Chain of CDK11 (Q9BWU1 whole entry): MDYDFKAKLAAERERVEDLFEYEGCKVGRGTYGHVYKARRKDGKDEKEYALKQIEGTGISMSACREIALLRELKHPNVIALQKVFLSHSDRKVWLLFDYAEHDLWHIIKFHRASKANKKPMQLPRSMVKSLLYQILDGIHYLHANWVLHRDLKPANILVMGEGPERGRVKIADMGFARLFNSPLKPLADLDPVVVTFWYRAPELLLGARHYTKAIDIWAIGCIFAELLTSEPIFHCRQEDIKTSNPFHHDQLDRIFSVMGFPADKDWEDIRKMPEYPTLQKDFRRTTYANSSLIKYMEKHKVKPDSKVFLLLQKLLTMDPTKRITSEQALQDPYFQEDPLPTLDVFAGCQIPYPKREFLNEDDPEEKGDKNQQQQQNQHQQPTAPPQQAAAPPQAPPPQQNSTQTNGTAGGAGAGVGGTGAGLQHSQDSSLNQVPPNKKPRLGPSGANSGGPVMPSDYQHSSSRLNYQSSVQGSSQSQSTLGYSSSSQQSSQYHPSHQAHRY
Chain of TRKA (P04629 33-796): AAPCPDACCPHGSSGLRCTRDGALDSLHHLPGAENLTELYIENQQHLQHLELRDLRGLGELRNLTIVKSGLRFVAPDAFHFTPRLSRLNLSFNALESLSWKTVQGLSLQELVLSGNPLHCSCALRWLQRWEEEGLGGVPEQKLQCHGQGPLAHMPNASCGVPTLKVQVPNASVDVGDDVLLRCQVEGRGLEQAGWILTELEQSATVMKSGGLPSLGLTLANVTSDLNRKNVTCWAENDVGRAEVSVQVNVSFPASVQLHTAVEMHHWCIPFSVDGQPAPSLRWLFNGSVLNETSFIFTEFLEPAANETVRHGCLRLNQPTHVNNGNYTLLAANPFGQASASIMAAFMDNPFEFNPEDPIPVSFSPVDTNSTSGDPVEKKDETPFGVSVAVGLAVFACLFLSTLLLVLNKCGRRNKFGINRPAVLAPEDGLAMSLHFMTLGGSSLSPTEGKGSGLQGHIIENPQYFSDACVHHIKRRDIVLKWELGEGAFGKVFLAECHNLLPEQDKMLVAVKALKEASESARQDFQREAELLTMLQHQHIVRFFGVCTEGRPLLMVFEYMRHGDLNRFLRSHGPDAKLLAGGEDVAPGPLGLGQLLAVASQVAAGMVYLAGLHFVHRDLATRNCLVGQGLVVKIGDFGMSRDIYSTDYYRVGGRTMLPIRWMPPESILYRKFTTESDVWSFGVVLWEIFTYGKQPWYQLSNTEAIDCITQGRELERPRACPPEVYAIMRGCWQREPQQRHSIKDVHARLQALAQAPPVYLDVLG

inhibition at 2 µM (AXL): 100%
inhibition at 2 µM (BLK): 95%
inhibition at 2 µM (CDK11): 100%
inhibition at 2 µM (CDK7): 96%
inhibition at 2 µM (DDR1): 100%
inhibition at 2 µM (EPHB6): 95%
inhibition at 2 µM (FLT3): 99%
inhibition at 2 µM (FLT3(D835V)): 93%
inhibition at 2 µM (FLT3(N841I)): 100%
inhibition at 2 µM (FLT4): 92%
inhibition at 2 µM (HIPK4): 97%
inhibition at 2 µM (IKK-alpha): 97%
inhibition at 2 µM (IKK-beta): 97%
inhibition at 2 µM (KIT): 100%
inhibition at 2 µM (KIT(L576P)): 100%
inhibition at 2 µM (KIT(V559D)): 100%
inhibition at 2 µM (KIT(V559D, T670I)): 99%
inhibition at 2 µM (MET(M1250T)): 99%
inhibition at 2 µM (MET(Y1235D)): 99%
inhibition at 2 µM (MKNK2): 100%
inhibition at 2 µM (MST1R): 98%
inhibition at 2 µM (MUSK): 98%
inhibition at 2 µM (MYO3B): 100%
inhibition at 2 µM (PDGFRB): 98%
inhibition at 2 µM (RAF1): 92%
inhibition at 2 µM (RET(M918T)): 95%
inhibition at 2 µM (ROS1): 97%
inhibition at 2 µM (TIE1): 99%
inhibition at 2 µM (TIE2): 99%
inhibition at 2 µM (TRKA): 100%
inhibition at 2 µM (TRKB): 94%
Structure (SMILES): COc1ccc(C(=O)Nc2ccc(Oc3cc4cnn(C)c4cc3-c3cn[nH]c3)c(F)c2)c(=O)n1-c1ccc(F)cc1 [Example 12, N-(3-fluoro-4-(1-methyl-6-(1H-pyrazol-4-yl)-1H-indazol-5-yloxy)phenyl)-1-(4-fluorophenyl)-6-methoxy-2-oxo-1,2-dihydropyridine-3-carboxamide]
inhibition at 2 µM (NEK9): 95%
